Where two headings read alike, the source gives them in different places. Values belong to the compound of their own block, whether it stands above or below them. *1 amine or outer side, *2 acyl side, *3 side chain or, on linkers, in order; H or OH if unused. Where a SMILES comes first, the peptide text is derived from it. Bridges are numbered along the chain shown (N, C = ends). X1 = Cc1sc(C(=O)[C@@H]2CCCN2[*:2])cc1C1=C(c2cc(C(=O)[*:1])sc2C)CCC1
Legend:
[1] = Experimental: The photostability in repeated cycles of reversible photoisomerization was studied on three selected compounds (linear three-peptide […]
samples were prepared in the same manner as for UV-Vis absorption characterization, namely at 20 mM in deoxygenated water.
The UV irradiation was done at spectral range of 320 -400 nm, 167 mW/cm 2 for 15 s; the visible light irradiation at 570 nm, 143 mW/cm2 for 60 s (both using LUMATEC® light source).
Figure S3. Photostability study of the three selected peptides at 20 mM in deoxygenated water at 22°C in 15 cycles of reversible photoisomerization with visible (570 nm, 143 mW/cm2 for 60 s) and UV light (320-400 nm, 167 mW/cm2 for 15 s). The left plots show absorption spectra after each 5 cycles (normalized at 575 nm for ring-closed forms). The right plots show the % of ring-closed form measured as absorbance at 575 nm.

[2] = system: other E. coli strains; conditions: other E. coli strains in MHB medium; ref S7; cited from earlier work
[3] = biological target: T1, Bos taurus trypsin 1 (T1) (Bos taurus, UniProt P00760); test: Trypsin inhibition, Ki by Lineweaver-Burk analysis;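 also: trypsin activity followed by spectrophotometric hydrolysis kinetics of the chromogenic substrate BAPNA in Tris buffer, Ki obtained from double-reciprocal Lineweaver–Burk plots at several substrate concentrations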
T1 sequence (P00760 24-246): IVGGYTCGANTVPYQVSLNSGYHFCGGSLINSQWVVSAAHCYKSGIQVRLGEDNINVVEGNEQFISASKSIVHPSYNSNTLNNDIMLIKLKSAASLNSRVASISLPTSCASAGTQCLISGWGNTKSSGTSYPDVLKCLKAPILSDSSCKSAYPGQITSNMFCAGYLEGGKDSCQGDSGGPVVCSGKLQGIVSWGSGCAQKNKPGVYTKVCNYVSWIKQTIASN
Experimental: (§7) The inhibition of trypsin and α-chymotrypsin was investigated by two methods. First, the inhibition was determined at a fixed enzyme and substrate concentration, whereas the inhibitor concentration varied. By plotting the protease activity against an inhibitor’s concentration, IC50 (the half-maximal inhibitory concentration) was determined.
(§8) Lineweaver–Burk analysis (see below), the Ki values for all peptide inhibitors were determined with high accuracy.
(§9) All measurements were performed with p-nitroaniline-based chromogenic substrates (λabs = 405 nm) in 96-well microtiter plates using
EpochTM 2 microplate spectrophotometer. For trypsin measurements the Tris buffer (50 mM Tris-HCl, 25 mM CaCl2, 0.005% Tween®
For the measurements, a fresh 0.92 µM trypsin solution was prepared from the storage aliquot and kept on ice.
A stock solution of the substrate BAPNA (Nα-Benzoyl-DL-arginine 4-nitroanilide hydrochloride) at the concentration of 50 mM in
aqueous dimethyl sulfoxide (DMSO) (100 mg of BAPNA in 4.6 mL of DMSO:water mixture 1:1) was pre pared and stored at RT.
peptide solutions at the concentration of 100 µM, which was further diluted to 10, 1, or 0.1 µM if required, were prepared in Milli-Q®
For the determination of IC50, a double dilution series of inhibit ors were prepared in a 96 -well plate (12 concentrations, two repeats
for each concentration, 200 µL of Tris buffer in each well). Subsequently, a trypsin solution (20 µL, 150 nM) was added to ea ch well
with the tested peptide and to the control row. Soluti ons in each well were intensely mixed using a multichannel pipette (from lower
concentration to higher). After a pre -incubation period (5 min), the substrate BAPNA was added to each well (20 µL, 25 mM).
solutions were thoroughly mixed with the multicha nnel pipette, and the kinetics of substrate hydrolysis was recorded with an interval
of 1 min between measurements over 20 min. The total volume in each well was 240 µL, final trypsin and BAPNA concentrations
were 12.5 nM and 2.08 mM, respectively. The mea n values of the two repeats of the slope of absorption vs. time curves were
calculated. The activities at different inhibitor concentrations were then calculated by taking the control curves’ slope val ues (no
inhibitor) as the 100% enzyme activity. The inh ibition activity IC 50 against α-chymotrypsin (α-chymotrypsin from bovine pancreas
(§10) type II) was measured in the same way except that a different substrate, Ac-EAPF-pNA (Ac-Glu-Ala-Pro-Phe-pNA), was used (20
Inhibitory constants Ki were determined by Lineweaver-Burk (LWB) double-reciprocal analysis according to a published protocol.[S5]
Briefly, a fresh inhibitor/enzyme mixture was prepared in a glass vial and distributed to 2x6 wells (200 µL in each well, enzyme
concentration after dilution 12 nM). An enzyme without an inhibitor was added to the control wells. Aliquots of varying substrate stock
solutions were added with a multichannel pipette to each well. For trypsin inhibition experiments, BAPNA (20 µL per well of 20, 22.7,
26, 29.8, 34, 40 mM) and for α-chymotrypsin Ac-EAPF-pNA (20 µL per well of 16, 12.48, 10, 8, 6.4, 5.44 mM) were used, respectively.
Well contents were thoroughly mixed using a multichannel pipette, and a plate reader was used to monitor the hydrolysis kinetics
(sampling interval of 1 min over 20 min).

[4] = biological target: T2, trypsin (Bos taurus, UniProt P00760); test: Trypsin inhibition, IC50 at fixed enzyme and substrate concentration; assay type: biochemical
T2 sequence (P00760 24-246): T1 sequence (P00760 24-246)
Excerpt: (§1) 6. Protease inhibition assays
(§2) With the second method, using
(§3) EpochTM 2 microplate spectrophotometer.
(§4) deionized ultrapure water.
(§5) concentration to higher). […] The
(§6) inhibitor) as the 100% enzyme activity.

[5] = biological target: T2, trypsin; conditions: for k H [M^−1 s^−1] (closed): pH 8.2
Experimental: Analysis of the proteolytic stability
(§11) Proteolytic stability of the peptides was characterized by determining hydrolysis rates (kH) by the action of trypsin in a 50 mM Tris–
(§12) HCl buffer, pH 8.2, supplemented with 25 mM CaCl2 and 0.005% Tween®20 at 22°C. The peptides at a concentration of 50 μM were
(§13) mixed with trypsin (0.5 μM) in a 2 mL total volume. At selected time intervals, 70 μL samples of the mixture were taken, quenched
(§14) by addition 130 μL 2% aqueous formic acid, and immediately analyzed by analytical HPLC. The kH values were calculated from the
(§15) time-dependent data assuming zero-order kinetics (zero-order kinetics applies due to the high substrate/enzyme ratio of 100 to 1).
(§16) For the fitting the linear part of the hydrolysis curve was taken excluding the last time point in which the entire peptide inhibitor was
(§17) analogues could hydrolyze at two positions: at the Lys (P1 position) of the inhibitory loop and after the stabilizing loop’s arginine
(§18) residue (P4 position).[S6] The ultimate product (i.e., cleaved at both positions) had, therefore, a MALDI-TOF-MS detectable mass
(§19) The identity of each peak was confirmed by MALDI -TOF-MS. Detection – 220 nm, hydrolysis time is indicated at each chromatogram.

[6] = biological target: T3, α-chymotrypsin from bovine pancreas type II (Bos taurus, UniProt P00766); test: α-Chymotrypsin inhibition, IC50 at fixed enzyme and substrate concentration; assay type: biochemical; design: host or cells: bovine pancreas
Excerpt: as §1, §2, §3, §4, §5, §6

[7] = biological target: T2, trypsin; test: Proteolytic stability: T1-induced hydrolysis rate constants (kH); conditions: non-photoswitchable reference compound; peptide 50 μM, trypsin 0.5 μM, 50 mM Tris-HCl pH 8.2, 25 mM CaCl2, 0.005% Tween 20, 22°C, analytical HPLC, zero-order fit
Experimental: Analysis of the proteolytic stability
as §11, §12, §13, §14, §15, §16, §17, §18, §19

[8] = biological target: T3, α-chymotrypsin from bovine pancreas type II; test: α-Chymotrypsin inhibition, Ki by Lineweaver-Burk analysis
Experimental: as §7, §8, §9
EpochTM 2 microplate spectrophotometer. For trypsin measurements the Tris buffer (50 mM Tris-HCl, 25 mM CaCl2, 0.005% Tween® […]
solutions were thoroughly mixed with the multicha nnel pipette, and the kinetics of substrate hydrolysis was recorded with an interval […]
calculated. The activities at different inhibitor concentrations were then calculated by taking the control curves’ slope val ues (no […]
as §10
Inhibitory constants Ki were determined by Lineweaver-Burk (LWB) double-reciprocal analysis according to a published protocol.[S5] […]
Well contents were thoroughly mixed using a multichannel pipette, and a plate reader was used to monitor the hydrolysis kinetics […]

SMILES: CC(=O)N[C@@H](C)C(=O)N1CCC[C@H]1C(=O)c1cc(C2=C(c3cc(C(=O)N[C@@H](C)C(N)=O)sc3C)CCC2)c(C)s1 [Ac‐Ala‐1‐Ala‐NH2]
degradation in repeated cycles of reversible photoisomerization ([1]; 15 cycles, UV 320-400 nm 167 mW/cm2 15 s, visible 570 nm 143 mW/cm2 60 s, 20 mM in deoxygenated water, 22°C, absorbance 575 nm): less than 30%

SMILES: CC[C@H](C)[C@H](NC(=O)[C@H](CCCNC(=N)N)NC(=O)[C@H](CCCNC(=N)N)NC(=O)[C@H](Cc1ccccc1)NC(=O)[C@H](CC(C)C)NC(=O)[C@H](CCCNC(=N)N)NC(=O)[C@@H](N)CCCNC(=N)N)C(=O)N[C@@H](CC(C)C)C(=O)N[C@@H](CCCNC(=N)N)C(=O)N[C@@H](Cc1c[nH]c2ccccc12)C(=O)N[C@@H](CC(C)C)C(N)=O [BP100‐RW] (H-RRLFRRILRWL-NH2)
MIC [2]: 0.2 to 0.5 µg/mL

SMILES: CC[C@H](C)[C@@H]1NC(=O)[C@@H]2CCCN2C(=O)[C@@H]2CCCN2C(=O)[C@H]([C@@H](C)CC)NC(=O)[C@H](CO)NC(=O)[C@H](CCCCN)NC(=O)[C@H]([C@@H](C)O)NC(=O)[C@H](C)NC(=O)[C@H](CCCNC(=N)N)NC(=O)c2cc(c(C)s2)C2=C(CCC2)c2cc(sc2C)C(=O)[C@@H]2CCCN2C(=O)[C@H](Cc2ccccc2)NC(=O)[C@H](C)NC1=O [Peptide S2] (RATKSIPPIAF; linker N-C via X1)
degradation in repeated cycles of reversible photoisomerization [1]: less than 30% | Ki ([3]; K i [nM] (closed)): 659 ± 33 nM | Ki ([3]; K i [nM] (open)): 203 ± 6 nM

SMILES: CC[C@H](C)[C@@H]1NC(=O)[C@@H]2CCCN2C(=O)[C@@H]2CCCN2C(=O)[C@H]([C@@H](C)CC)NC(=O)[C@H](CO)NC(=O)[C@H](Cc2ccccc2)NC(=O)[C@H]([C@@H](C)O)NC(=O)[C@@H]2CSSC[C@H](NC1=O)C(=O)N[C@@H](Cc1ccccc1)C(=O)N[C@@H](CC(C)C)C(=O)N1CCC[C@H]1C(=O)c1cc(c(C)s1)C1=C(CCC1)c1cc(sc1C)C(=O)N[C@@H](C(C)C)C(=O)N[C@@H](CCCNC(=N)N)C(=O)N2 [Peptide S5F] (VRCTFSIPPICFL; disulfide 3-11; linker N-C via X1)
IC50 [4]: 50000 to 100000 nM

SMILES: CC[C@H](C)[C@@H]1NC(=O)[C@@H]2CCCN2C(=O)[C@@H]2CCCN2C(=O)[C@H]([C@@H](C)CC)NC(=O)[C@H](CO)NC(=O)[C@H](CCCCN)NC(=O)[C@H]([C@@H](C)O)NC(=O)[C@@H]2CSSC[C@H](NC1=O)C(=O)N[C@@H](CCCNC(=N)N)C(=O)N[C@@H](CC(C)C)C(=O)N1CCC[C@H]1C(=O)c1cc(c(C)s1)C1=C(CCC1)c1cc(sc1C)C(=O)N[C@@H](C(C)C)C(=O)N[C@@H](Cc1ccccc1)C(=O)N2 [Peptide S10i] (VFCTKSIPPICRL; disulfide 3-11; linker N-C via X1)
degradation in repeated cycles of reversible photoisomerization [1]: less than 30% | k H (closed) /k H (open) [5]: 4.2 | k H [M^−1 s^−1] (closed) [5]: 2.2±0.3×10^−4 M^−1 s^−1 | Ki ([3]; K i [nM] (closed)): 44.8 ± 2.2 nM | Ki ([3]; K i [nM] (open)): 5.1 ± 0.4 nM

SMILES: CC[C@H](C)[C@@H]1NC(=O)[C@@H]2CCCN2C(=O)[C@@H]2CCCN2C(=O)[C@H]([C@@H](C)CC)NC(=O)[C@H](CO)NC(=O)[C@H](CCCCN)NC(=O)[C@H]([C@@H](C)O)NC(=O)[C@@H]2CSSC[C@H](NC1=O)C(=O)N[C@@H](Cc1ccccc1)C(=O)N[C@@H](CC(C)C)C(=O)N1CCC[C@H]1C(=O)c1cc(c(C)s1)C1=C(CCC1)c1cc(sc1C)C(=O)N[C@@H](C(C)C)C(=O)N[C@@H](CCCNC(=N)N)C(=O)N2 [Peptide S10n] (VRCTKSIPPICFL; disulfide 3-11; linker N-C via X1)
k H (closed) /k H (open) [5]: 15.7 | k H [M^−1 s^−1] (closed) [5]: 3.6±0.3×10^−3 M^−1 s^−1 | Ki ([3]; K i [nM] (closed)): 181 ± 7 nM | Ki ([3]; K i [nM] (open)): 17.5 ± 0.7 nM | IC50 [6]: 50000 to 100000 nM

IC50 ([4]; non-photoswitchable reference, trypsin 12.5 nM, BAPNA 2.08 mM, Tris pH 8.2, 5 min pre-incubation, read-out: IC50, nM (trypsin inhibition)): 15.6 nM | k H [M^−1 s^−1] [7]: 2.0±0.2×10^−5 M^−1 s^−1
SMILES: CC[C@H](C)[C@@H]1NC(=O)[C@@H]2CCCN2C(=O)[C@@H]2CCCN2C(=O)[C@H]([C@@H](C)CC)NC(=O)[C@H](CO)NC(=O)[C@H](CCCCN)NC(=O)[C@H]([C@@H](C)O)NC(=O)[C@@H]2CSSC[C@H](NC1=O)C(=O)N[C@@H](CCCNC(=N)N)C(=O)N1CCC[C@H]1C(=O)N[C@@H](CC(=O)O)C(=O)NCC(=O)N[C@@H](Cc1ccccc1)C(=O)N2 [SFTI‐1i, reference compound] (cyclo(CRPDGFCTKSIPPI); disulfide 1-7)

Ki [8]: 2.8 nM | IC50 ([6]; non-photoswitchable control, enzyme 12.5 nM, Ac-EAPF-pNA 1.33 mM, read-out: IC50, nM (α-chymotrypsin inhibition)): 6.6 nM
SMILES: CC[C@H](C)[C@@H]1NC(=O)[C@@H]2CCCN2C(=O)[C@@H]2CCCN2C(=O)[C@H]([C@@H](C)CC)NC(=O)[C@H](CO)NC(=O)[C@H](Cc2ccccc2)NC(=O)[C@H]([C@@H](C)O)NC(=O)[C@@H]2CSSC[C@H](NC1=O)C(=O)N[C@@H](Cc1ccccc1)C(=O)N1CCC[C@H]1C(=O)N[C@@H](CC(=O)O)C(=O)NCC(=O)N[C@@H](CCCNC(=N)N)C(=O)N2 [SFTI‐5F, reference compound] (cyclo(CFPDGRCTFSIPPI); disulfide 1-7)
